Test results published in PMC6114082, “Synthesis of aminophenylhydroxamate and aminobenzylhydroxamate derivatives and in vitro screening for antiparasitic and histone deacetylase inhibitory activity” (International Journal for Parasitology: Drugs and Drug …, 2018).

Experiments:
HDAC 3 = biological target: T1, HDAC 3 (Homo sapiens, UniProt O15379); test: Fluorometric HDAC assay, recombinant HDAC3; assay type: biochemical
T1 construct: purchased Active Motif, Belgium
Method: (§1) The HDACi effect against HeLa nuclear extracts and recombinant proteins were measured using a fluorometric HDAC assay kit (Active Motif, Belgium) according to the manufacturer's instructions. […] A negative control containing trichostatin A at a final concentration of 2 μM was analyzed for each independent experiment.

[1] = Cytotoxicity, MTT assay, HFF; assay type: cell-based, human; details: human, HFF cells
Method: The human monocytic cell line THP-1 was cultivated in RPMI medium supplemented with 10% FCS, 2 mM GlutaMAX, 100 U/ml penicillin, and 100 μg/ml streptomycin. HFF cells were cultivated in Dulbecco's modified Eagle's medium (DMEM) with Earle's salts containing 10% FCS, 10 mM HEPES, 1 mM sodium pyruvate, 2 mM GlutaMAX, 100 U/ml penicillin, and 100 μg/ml streptomycin. The THP-1 and HFF cells were maintained in a 5% CO2 incubator at 37 °C. Cytotoxicity was evaluated via the MTT assay, and the IC50 values were calculated using Prism software (Prism 4 for Mac OS X, version 5.0b, December, 2008).

HEPG2 cells = test: Cytotoxicity, HEPG2 cell line; assay type: cell-based, human
[2] = Cytotoxicity, HEPG2 cell line; assay type: cell-based, human; details: human, HepG2 cells
[3] = tested on: L. tropica MHOM/BR/73/5-ASKM; test: Antileishmanial activity, L. tropica promastigotes; assay type: cell-based, Leishmania tropica; details: Leishmania tropica
Method: (§2) The antitrypanosomatid activity of the compounds was ascertained as follows. Leishmania parasites were cultured at 26 °C in SDM-79 medium supplemented with 10% fetal calf serum (FCS), and the antileishmanial activity was determined according to a previously published protocol for LUC-expressing and wild-type Leishmania ([Sereno et al., 2001], [Abbassi et al., 2008]). Trypanosoma brucei gambiense were grown at 26 °C in Cunningham's medium supplemented with 10% FCS, 2 mM GlutaMAX-1 (Gibco, USA), 100 U/ml penicillin, 100 μg/ml streptomycin and […] bovine hemin. The epimastigote form of Trypanosoma cruzi (strain Y cl7 scl2, lineage Tc2) (kindly provided by Philippe Truc and Christian Barnabé, UMR 177 IRD-CIRAD InterTryp, Montpellier, France) were grown at 26 °C in liver infusion tryptose (LIT) medium, supplemented with 10% FCS, 2 mM GlutaMAX™-I, 100 U/ml penicillin, 100 μg/ml streptomycin and bovine hemin (20 mg/l) (Gibco). The antitrypanosomatids activity was determined using a protocol that was initialy set up for wild-type Leishmania ([Abbassi et al., 2008]). To assess the drug activity on Toxoplasma gondii, confluent human foreskin fibroblast (HFF) monolayers were infected with YFP-type I Rh kindly provided by B. Striepen, see ([Striepen et al., 1998]) or Tomato-type II Pru kindly provided by N. Blanchard (Toulouse), expressing parasites at 5 × 10^4 per well, which were then centrifuged for 30 s at 1300 rpm and incubated for 30 min in a water bath at 37 °C to allow invasion. The wells were then washed three times with PBS to eliminate extracellular parasites, and the drugs were added at various concentrations ranging from 1 to 50 μM. After incubation for 24 h at 37 °C in a humidified atmosphere containing 5% CO2, the cells were fixed in 2.5% methanol-free formaldehyde (Tebu-bio)/PBS for 30 min at room temperature. Nuclei were stained with Hoechst 33258 (2 μg/ml, Molecular Probes) for 20 min and then washed three times with water for 10 min each time. The number of infected cells, i.e., cells harboring a parasitophorous vacuole, and the number of parasites per vacuole were determined using an Olympus ScanR microscope ( × 20 objective) and ScanR software. The parasitic index in % compared to the control was calculated as follows: (PI=((number of parasite/100 cells in treated wells) x (% of infected macrophage in treated well)/(number of parasite/100 cells in untreated wells) x (% of infected macrophage in untreated wells))*100).

[4] = tested on: T. gondii deacetylase activity (total protein extract); test: Deacetylase activity of total protein extract of T. gondii tachyzoites; assay type: biochemical, Toxoplasma gondii; details: 0.125 μM
Method: as §1
HDAC activity was determined from total protein extracted from T. gondii.

T. gondi RH-YFP = test: Anti-Toxoplasma activity in infected HFF monolayers, type I RH-YFP (parasitic index); assay type: cell-based, Toxoplasma gondii
[5] = tested on: Pru Type II strain of T. gondii; test: Anti-Toxoplasma activity in infected HFF monolayers, type II Pru strain; assay type: cell-based, Toxoplasma gondii; details: for IC50: 24 h, type II strain, in HFF
Method: as §2, with “The wells were then washed three times with PBS to eliminate extracellular parasites, and the drugs were added at various concentrations ranging from 1 to 50 μM. After incubation for 24 h at 37 °C in a humidified atmosphere containing 5% CO2, the cells were fixed in 2.5% methanol-free formaldehyde (Tebu-bio)/PBS for 30 min at room temperature. Nuclei were stained with Hoechst 33258 (2 μg/ml, Molecular Probes) for 20 min and then washed three times with water for 10 min each time.” left out

T1 sequence (O15379 whole entry): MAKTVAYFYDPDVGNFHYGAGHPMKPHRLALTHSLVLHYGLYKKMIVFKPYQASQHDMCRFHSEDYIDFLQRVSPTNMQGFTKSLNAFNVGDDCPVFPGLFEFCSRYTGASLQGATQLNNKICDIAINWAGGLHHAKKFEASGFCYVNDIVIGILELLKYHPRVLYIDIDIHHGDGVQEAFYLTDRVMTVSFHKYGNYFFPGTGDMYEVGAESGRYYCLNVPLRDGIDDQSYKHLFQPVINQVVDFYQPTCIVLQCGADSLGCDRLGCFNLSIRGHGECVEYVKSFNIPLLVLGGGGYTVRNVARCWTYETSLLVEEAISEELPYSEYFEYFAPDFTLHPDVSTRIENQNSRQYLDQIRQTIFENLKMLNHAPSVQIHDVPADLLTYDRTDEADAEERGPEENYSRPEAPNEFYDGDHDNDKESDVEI
T1 sequence (O75376 395-489 partner limits assumed): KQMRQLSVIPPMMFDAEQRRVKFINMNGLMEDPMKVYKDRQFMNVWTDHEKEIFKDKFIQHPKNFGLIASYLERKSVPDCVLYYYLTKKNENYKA

Question: Which “Fold, HDAC 3” value (HDAC 3; 363 as compared to SAHA) does the source give for `COc1cccc(CC(=O)Nc2ccc(C(=O)NO)cc2)c1` [Compound 363, N-hydroxy-4-[2-(3-methoxyphenyl)acetamido]benzamide] here?
Answer: 1.06

Question: And the IC50 (HDAC 3; recombinant protein, read-out: rHDAC 3 IC50)?
Answer: 160 ± 52 nM

Question: And the IC50 [1]?
Answer: 105 ± 10.5 µM

Question: And the “index of selectivity, HEPG2 vs T. gondii tachyzoites” value (HEPG2 cells)?
Answer: 42

Question: And the IC50 [2]?
Answer: > 15 µM

Question: And the IC50 [3]?
Answer: > 60 µM

Question: What about the “inhibition of T. gondii deacetylase activity” value [4] of the same compound?
Answer: 44%

Question: What about the “IS^a selectivity index for T. gondi” value (T. gondi RH-YFP; IC50 HFF / IC50 T. gondi RH-YFP) of the same compound?
Answer: 300

Question: And the IC50 (T. gondi RH-YFP; Toxoplasma gondii, read-out: anti-Toxoplasma activity IC50, range over strains, type I and type II strains together (abstract))?
Answer: 350 to 2250 nM

Question: And the “selectivity index, range over human cell lines” value (T. gondi RH-YFP; using different human cell lines)?
Answer: 10–300

Question: What about the “IS^a selectivity index for T. gondii, second value marked #” value ([5]; IC50 HFF / IC50 T. gondii type II Pru strain) of the same compound?
Answer: 46

Question: What about the IC50 ([5]; Toxoplasma gondii) of the same compound?
Answer: 2250 nM

Question: What about the IC50 [5] of the same compound?
Answer: 2270 nM
